In ChEMBL document CHEMBL5370584, “Reprogramming Energy Metabolism with Synthesized PDK Inhibitors Based on Dichloroacetate Derivatives and Targeted Delivery Systems for Enhanced Cancer Therapy” (J Med Chem, 2023):
Active and inactive are the calls of the source. The calls are words filed in the database; no cut-off is given here.

Legend:
MOLM-13 = assay: Antiproliferative activity against human MOLM-13 cells assessed as inhibition of cell growth incubated for 24 hrs by MTT assay; type: functional, cell-based; settings: MOLM-13, 24 h
NB-4 = assay: Antiproliferative activity against human NB4 cells assessed as inhibition of cell growth incubated for 24 hrs by MTT assay; type: functional, cell-based; settings: NB-4, 24 h
4T1 [1] = assay: Antiproliferative activity against mouse 4T1 cells assessed as inhibition of cell growth incubated for 24 hrs by MTT assay; type: functional, cell-based; settings: 4T1, 24 h
MCF7 = assay: Antiproliferative activity against human MCF7 cells assessed as inhibition of cell growth incubated for 24 hrs by MTT assay; type: functional, cell-based; settings: MCF7, 24 h
HeLa = assay: Antiproliferative activity against human HeLa cells assessed as inhibition of cell growth incubated for 24 hrs by MTT assay; type: functional, cell-based
[2] = Antiproliferative activity against rat PBMC cells assessed as inhibition of cell growth at 5 uM incubated for 24 hrs by MTT assay; type: toxicity, cell-based
[3] = Selectivity ratio of IC50 mouse 4T1 cells to IC50 for African green monkey COS7 cells
[4] = biological target: [Pyruvate dehydrogenase (acetyl-transferring)] kinase isozyme 2, mitochondrial (Mus musculus) (UniProt Q9JK42); assay: Inhibition of PDK2 transcription in mouse 4T1 cells at 4 uM incubated for 24 hrs by qPCR analysis; type: cell-based
[5] = biological target: [Pyruvate dehydrogenase (acetyl-transferring)] kinase isozyme 3, mitochondrial (Mus musculus) (UniProt Q922H2); assay: Inhibition of PDK3 transcription in mouse 4T1 cells at 4 uM incubated for 24 hrs by qPCR analysis; type: cell-based
[Pyruvate dehydrogenase (acetyl-transferring)] kinase isozyme 3, mitochondrial (Mus musculus), sequence (Q922H2 whole entry): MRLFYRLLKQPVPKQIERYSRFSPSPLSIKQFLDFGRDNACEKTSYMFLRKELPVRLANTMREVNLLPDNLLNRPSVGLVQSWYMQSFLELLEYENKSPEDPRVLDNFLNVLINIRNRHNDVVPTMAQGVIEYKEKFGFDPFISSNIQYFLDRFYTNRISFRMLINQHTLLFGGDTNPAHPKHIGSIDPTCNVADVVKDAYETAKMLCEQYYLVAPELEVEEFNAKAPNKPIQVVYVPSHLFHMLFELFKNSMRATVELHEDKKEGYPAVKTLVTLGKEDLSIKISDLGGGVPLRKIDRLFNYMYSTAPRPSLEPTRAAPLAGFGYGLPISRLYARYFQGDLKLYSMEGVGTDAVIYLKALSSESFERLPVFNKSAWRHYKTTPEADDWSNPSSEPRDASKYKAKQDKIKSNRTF

[6] = biological target: [Pyruvate dehydrogenase (acetyl-transferring)] kinase isozyme 4, mitochondrial (Mus musculus) (UniProt O70571); assay: Inhibition of PDK4 transcription in mouse 4T1 cells at 4 uM incubated for 24 hrs by qPCR analysis; type: cell-based
[Pyruvate dehydrogenase (acetyl-transferring)] kinase isozyme 4, mitochondrial (Mus musculus), sequence (O70571 whole entry): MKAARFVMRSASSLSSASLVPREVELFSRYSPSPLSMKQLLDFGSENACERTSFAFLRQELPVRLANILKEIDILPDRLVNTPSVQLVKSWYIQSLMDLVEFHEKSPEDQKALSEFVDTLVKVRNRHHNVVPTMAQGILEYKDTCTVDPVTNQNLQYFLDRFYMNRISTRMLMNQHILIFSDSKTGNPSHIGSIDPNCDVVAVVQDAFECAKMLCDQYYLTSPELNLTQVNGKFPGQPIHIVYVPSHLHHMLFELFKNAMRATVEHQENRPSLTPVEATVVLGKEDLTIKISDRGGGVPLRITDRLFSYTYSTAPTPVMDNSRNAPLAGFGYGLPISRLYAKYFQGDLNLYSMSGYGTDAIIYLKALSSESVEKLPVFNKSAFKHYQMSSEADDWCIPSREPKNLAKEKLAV

4T1 [7] = assay: Inhibition of PDK4 expression in mouse 4T1 cells at 4 uM incubated for 24 hrs by Western blot analysis; type: functional, cell-based
4T1 [8] = assay: Downregulation of PHDC at Ser293 residues in mouse 4T1 cells at 4 uM incubated for 24 hrs by Western blot analysis; type: functional, cell-based
COS-7 [9] = assay: Effect on PHDC expression in African monkey COS7 cells at high concentration measured after 6 hrs; type: functional, cell-based; settings: Chlorocebus aethiops
COS-7 [10] = assay: Effect on PDK1 expression in African monkey COS7 cells at 12 uM measured after 24 hrs; type: functional, cell-based; settings: Chlorocebus aethiops
COS-7 [11] = assay: Effect on PDK4 expression in African monkey COS7 cells at 12 uM measured after 24 hrs; type: functional, cell-based; settings: Chlorocebus aethiops
COS-7 [12] = assay: Effect on phosphorylation of PDH expression at Serine 293 residues in African monkey COS7 cells at 12 uM measured after 24 hrs; type: functional, cell-based; settings: Chlorocebus aethiops
4T1 [13] = assay: Induction of mitochondrial respiration in mouse 4T1 cells assessed as increase in basal respiration at 2 to 6 uM incubated for 6 hrs by seahorse XF96 flux analyzer; type: functional, cell-based; settings: dose 2-6 µM
4T1 [14] = assay: Induction of mitochondrial respiration in mouse 4T1 cells assessed as increase in glucose uptake at 2 to 6 uM incubated for 18 hrs followed by 6 hrs incubation in serum free high glucose medium by glucose uptake assay; type: functional, cell-based; settings: dose 2-6 µM, time 24.0 hrs
4T1 [15] = assay: Inhibition of glycolysis in mouse 4T1 cell lysates assessed as reduction in LDH activity at 1 to 2 uM incubated for 12 hrs; type: functional, cell-based; settings: dose 1-2 µM
4T1 [16] = assay: Inhibition of glycolysis in mouse 4T1 cell lysates assessed as reduction in LDHA expression at 4 uM incubated for 24 hrs; type: functional, cell-based
4T1 [17] = assay: Inhibition of glycolysis in mouse 4T1 cell lysates assessed as reduction in lactate production at 1 to 4 uM measured after 6 to 12 hrs; type: functional, cell-based; settings: dose 1-4 µM, time 6-12 hrs
4T1 [18] = assay: Inhibition of glycolysis in mouse 4T1 cell lysates assessed as reduction in extracellular acidification rate at 2 to 6 uM measured after 6 hrs; type: functional, cell-based; settings: dose 2-6 µM
4T1 [19] = assay: Induction of apoptosis in mouse 4T1 cells assessed as increase in GSH content at 1 to 2 uM measured after 12 to 24 hrs; type: functional, cell-based; settings: dose 1-2 µM, time 12-24 hrs
4T1 [20] = assay: Downregulation of HIF-1alpha expression in mouse 4T1 cells at 4 uM incubated for 24 hrs; type: functional, cell-based
4T1 [21] = assay: Downregulation of c-myc expression in mouse 4T1 cells at 4 uM incubated for 24 hrs; type: functional, cell-based
4T1 [22] = assay: Upregulation of p53 level in mouse 4T1 cells at 4 uM incubated for 24 hrs; type: functional, cell-based
4T1 [23] = assay: Induction of mitochondrial membrane potential depolarization in mouse 4T1 cells at low dose measured after 12 hrs by JC-1 staining based analysis; type: functional, cell-based
4T1 [24] = assay: Induction of mitochondrial membrane potential depolarization in mouse 4T1 cells at high dose measured after 12 hrs by JC-1 staining based analysis; type: functional, cell-based
4T1 [25] = assay: Induction of apoptosis in mouse 4T1 cells assessed as reduction in Bcl-2 expression at 4 uM incubated for 24 hrs; type: functional, cell-based
4T1 [26] = assay: Induction of apoptosis in mouse 4T1 cells assessed as activation of cytochrome C release from mitochondria to cytosol at 1 to 4 uM incubated for 12 hrs; type: functional, cell-based; settings: dose 1-4 µM
4T1 [27] = assay: Induction of apoptosis in mouse 4T1 cells assessed as activation of caspase 9 at 2 uM incubated for 12 to 18 hrs; type: functional, cell-based; settings: time 12-18 hrs
4T1 [28] = assay: Induction of apoptosis in mouse 4T1 cells assessed as activation of caspase 3 at 2 uM incubated for 12 to 18 hrs; type: functional, cell-based; settings: time 12-18 hrs
4T1 [29] = assay: Induction of apoptosis in mouse 4T1 cells assessed as increase in proportion of apoptotic cells incubated for 24 hrs by annexin V-FITC/PI staining based flow cytometry analysis; type: functional, cell-based; settings: dose 2-3 µM
[30] = Toxicity in BALB/c mouse assessed as effect on heart at 0.15 to 1.5 mg/kg measured upto 16 days; type: organism-based; settings: in vivo, 384 h, dose 0.15-1.5 mg/kg, time < 16 day
[31] = Toxicity in BALB/c mouse assessed as effect on spleen at 0.15 to 1.5 mg/kg measured upto 16 days; type: organism-based; settings: in vivo, 384 h, dose 0.15-1.5 mg/kg, time < 16 day
[32] = Toxicity in BALB/c mouse assessed as effect on lung at 0.15 to 1.5 mg/kg measured upto 16 days; type: organism-based; settings: in vivo, 384 h, dose 0.15-1.5 mg/kg, time < 16 day
[33] = Toxicity in BALB/c mouse assessed as effect on kidney at 0.15 to 1.5 mg/kg measured upto 16 days; type: organism-based; settings: in vivo, 384 h, dose 0.15-1.5 mg/kg, time < 16 day
4T1 [34] = assay: Antitumor activity against mouse 4T1 cells xenografted in BALB/c mouse model assessed as reduction in hepatosplenomegaly by measuring organ coefficient at 0.15 to 1.5 mg/kg; type: functional, organism-based; settings: dose 0.15-1.5 mg/kg
4T1 [35] = assay: Antitumor activity against mouse 4T1 cells xenografted in BALB/c mouse model assessed as reduction in inflammatory index in routine blood at 0.15 to 1.5 mg/kg; type: functional, organism-based; settings: dose 0.15-1.5 mg/kg
[36] = Toxicity in BALB/c mouse assessed as effect on AST level at 0.15 to 1.5 mg/kg measured upto 16 days; type: organism-based; settings: in vivo, 384 h, dose 0.15-1.5 mg/kg, time < 16 day
[37] = Toxicity in BALB/c mouse assessed as effect on ALP level at 0.15 to 1.5 mg/kg measured upto 16 days; type: organism-based; settings: in vivo, 384 h, dose 0.15-1.5 mg/kg, time < 16 day
[38] = Toxicity in BALB/c mouse assessed as effect on UREA level at 0.15 to 1.5 mg/kg measured upto 16 days; type: organism-based; settings: in vivo, 384 h, dose 0.15-1.5 mg/kg, time < 16 day

For `O=C(CCCCCNC(=O)C(Cl)Cl)Nc1ccc([As]2SCCCS2)cc1`, the IC50 (MOLM-13) was 1350 nM, the IC50 (NB-4) was 1720 nM and the IC50 (4T1 [1]) was 1920 nM. The IC50 (MCF7) was 2500 nM, the IC50 (HeLa) was 2500 nM and the Activity [2] was “Non-Toxic”. For the same compound, the “Ratio IC50” value [3] was 6, the inhibition [4] was “Active” and the inhibition [5] was “Active”. The inhibition [6] was “Active”, the inhibition (4T1 [7]) was “Active” and the Activity (4T1 [8]) was “Active”. For the same compound, the Activity (COS-7 [9]) was “inactive”, the Activity (COS-7 [10]) was “inactive” and the Activity (COS-7 [11]) was “inactive”. The Activity (COS-7 [12]) was “inactive”, the Activity (4T1 [13]) was “Active” and the Activity (4T1 [14]) was “Active”. The inhibition (4T1 [15]) was “Active”, the inhibition (4T1 [16]) was “Active” and the inhibition (4T1 [17]) was “Active”. For the same compound, the inhibition (4T1 [18]) was “Active”, the Activity (4T1 [19]) was “Active” and the Activity (4T1 [20]) was “Active”. For the same compound, the Activity (4T1 [21]) was “Active”, the Activity (4T1 [22]) was “Active” and the Activity (4T1 [23]) was “inactive”. For the same compound, the Activity (4T1 [24]) was “Active”, the Activity (4T1 [25]) was “Active” and the Activity (4T1 [26]) was “Active”. For the same compound, the Activity (4T1 [27]) was “Active”, the Activity (4T1 [28]) was “Active” and the Activity (4T1 [29]) was “Dose-Dependent Effect”. For the same compound, the Activity [30] was “Non-Toxic”, the Activity [31] was “Non-Toxic” and the Activity [32] was “Non-Toxic”. The Activity [33] was “Non-Toxic”, the Activity (4T1 [34]) was “Active” and the Activity (4T1 [35]) was “Active”. For the same compound, the Activity [36] was “Non-Toxic”, the Activity [37] was “Non-Toxic” and the Activity [38] was “Non-Toxic”.
